Data as given in article PMC8406298, “Discovery of Fungus-Specific Targets and Inhibitors Using Chemical Phenotyping of Pathogenic Spore Germination” (mBio, 2021).

Experiments:
[1] = test system: Cryptococcus yeast (CHY3833 and CHY3836); experiment: Yeast replication secondary screen (OD600); format: cell-based, Cryptococcus neoformans serotype D (deneoformans); details: 10 μM, 12 h at 30°C
Experimental: (ii) Yeast replication. CHY3833 and CHY3836 were each grown in YPD liquid overnight at 30°C to saturation and then resuspended in 0.5× YPD at an OD600 of 0.005. Strains were aliquoted into 384-well plates with inhibitors and grown for 12 h at 30°C at […] before OD600 readings were taken. Compounds that caused a >10% decrease in growth were considered yeast growth inhibitors.

[2] = test system: normal human dermal fibroblasts (NHDF) cells; experiment: Fibroblast cytotoxicity (CellTiter-Glo); format: cell-based; details: 10 µM
Experimental: PrimaPure normal human dermal fibroblasts (NHDF) cells (Genlatis PH10605A) were cultured and passaged in fibroblast growth medium (Genlatis PM116500) according to the manufacturer’s protocol. NHDF cells (1 × 10^3 per well) were plated in a 384-well plate in cell culture medium. The cells were incubated with each compound of interest at 10 μM concentration for 72 h at 37°C and 5% CO2. Following treatment, CellTiter-Glo (Promega) reagent was used to assay ATP-dependent luminescence and thus provide a measure of cell viability. […] For cytotoxicity dose-response curves (Fig. 4C and Fig. 5C), compounds were titrated from 80 μM to 0.5 μM in duplicates.

SMILES | Yeast Inhibition: % Inhibition [1] [%] | Cytotoxicity: Relative Cell Viability (% of Negative Control) [2]
O=C(Nc1ccc2[nH]c3c(c2c1)CCCC3)c1ccco1 [compound 852322] | 65.7 | 77.3 % of Negative Control
COC(=O)c1c(N)sc(C)c1-c1ccc(F)cc1 [compound 874714] | 87.6 | 75.9 % of Negative Control
Cc1ccc(C)c(CSc2nc3ccccc3[nH]2)c1 [compound 899259] | 45.3 | 84.5 % of Negative Control
c1ccc(CNc2ncnc3scc(-c4cccs4)c23)nc1 [compound 944383] | 53.4 | 92.9 % of Negative Control
Clc1ccc2nc(SCCc3ccccc3)[nH]c2c1 [compound 955598] | 98.2 | 34.2 % of Negative Control
Cc1cccc2nc(CSC(=S)NCc3cccnc3)cn12 [compound 957599] | 59.9 | 10.0 % of Negative Control
C=C(C)Cn1c(Cc2ccc(OC)cc2)nc2ccccc21 [compound 962333] | 53.4 | 73.9 % of Negative Control
Nc1nc(COc2ccc3ccccc3c2)cs1 [compound 973573] | 75.7 | 108.1 % of Negative Control
O=S(=O)(Nc1ccc(Br)cc1F)c1cccc(Cl)c1 [compound 983861] | 55.6 | 101.6 % of Negative Control
CCOC(=O)c1c(-c2ccc(C)o2)csc1NC(=O)c1ccc2c(c1)OCCO2 [compound 1186249] | 44.6 | 75.3 % of Negative Control
COC(=O)c1sc(S(=O)(=O)Nc2cccc(C(F)(F)F)c2)c(C(=O)OC)c1C [compound 1190482] | 2.5 | 90.9 % of Negative Control
O=C1NC(=S)S/C1=C\c1ccccc1F [compound 1204290] | 71.4 | 92.9 % of Negative Control
Cn1c(=O)c(Nc2ccc(O)cc2)c2c3c(cccc31)C(=O)c1ccccc1-2 [compound 1263311] | -2.6 | 86.6 % of Negative Control
O=S(=O)(Nc1ccc(Br)cc1F)c1ccc(Cl)c(C(F)(F)F)c1 [compound 1307471] | 59.9 | 98.7 % of Negative Control
O=C(NN1C(=O)/C(=C\c2ccco2)SC1=S)c1ccc(OC(F)F)cc1 [compound 1391595] | 65.6 | 93.6 % of Negative Control
O=C(Nc1cccc(C(F)(F)F)c1)C1=Cc2ccccc2OC1 [compound 1475928] | 77.9 | 58.1 % of Negative Control
O=C(NCCc1ccccc1)c1n[nH]c2ccccc12 [compound 1505880] | 77.5 | 87.7 % of Negative Control
Cc1c(-n2c(-c3ccccc3)csc2=NC(=O)c2ccccc2)c(=O)n(-c2ccccc2)n1C [compound 1528700] | -8.8 | 93.1 % of Negative Control
CCCCNC(=O)COc1c(C)cc(Br)cc1C [compound 1570496] | 47.1 | 84.5 % of Negative Control
Cc1ccccc1OCCSCc1nc2ccccc2[nH]1 [compound 1589778] | 72.5 | 86.0 % of Negative Control
Clc1ccc(OCCSCc2nc3ccccc3[nH]2)cc1 [compound 1589789] | 79.6 | 74.0 % of Negative Control
O=C1/C(=C/c2ccncc2)SC(=S)N1Nc1ccccc1 [compound 1636480] | 67.7 | 86.8 % of Negative Control

SMILES | Yeast Inhibition: % Inhibition [1] [%] | Cytotoxicity: Relative Cell Viability (% of Negative Control) [2]
CCCOc1ccc(CSc2nc3ccccc3[nH]2)cc1 [compound 1653621] | 77.4 | 75.1 % of Negative Control
CC(=O)c1ccc(OCCOc2ccc(C#N)cc2)cc1 [compound 1713451] | 41.1 | 106.4 % of Negative Control
CC(C)(c1ccc(O)cc1)c1ccc(Cl)cc1 [compound 1992009] | 96.6 | 2.1 % of Negative Control
COc1ccc(CCNc2ncnc3scc(-c4cccs4)c23)cc1OC [compound 2008712] | 68.9 | 97.9 % of Negative Control
O=C(NCc1ccco1)c1sc2ccccc2c1Cl [compound 2049334] | 53.3 | 88.3 % of Negative Control
Cc1cc(C)c2sc(NN)nc2c1 [compound 2049855] | 100.6 | 38.9 % of Negative Control
CCCCSc1nc2ccc(C)cc2[nH]1 [compound 2129690] | 80.1 | 104.3 % of Negative Control
Cc1ccc(S(=O)(=O)Nc2cc(Sc3nc[nH]n3)c(O)c3ccccc23)c(C)c1 [compound 2133779] | 98.3 | 3.5 % of Negative Control
Cc1nc(NC(=O)CCl)sc1C(=O)OCC(C)C [compound 2139195] | 99.1 | 6.3 % of Negative Control
COc1ccc(NC(=O)CN2CCN(c3c(C)cccc3C)CC2)cc1 [compound 2200363] | 64.6 | 71.8 % of Negative Control
c1nc(N2CCCCCC2)c2ccsc2n1 [compound 2238990] | 57.0 | 79.6 % of Negative Control
CC1CCN(c2ncnc3sccc23)CC1 [compound 2238992] | 73.6 | 70.0 % of Negative Control
Cc1nc(NCc2ccccc2)c2ccsc2n1 [compound 2238994] | 84.9 | 75.7 % of Negative Control
Cc1nc(NC2CCCCC2)c2ccsc2n1 [compound 2239015] | 45.4 | 75.4 % of Negative Control
O=c1/c(=C/c2ccc(F)cc2F)sc2nc3ccccc3n12 [compound 2354424] | 88.9 | 81.4 % of Negative Control
FC(F)(F)c1cccc(N2CCN(c3ncnc4sccc34)CC2)c1 [compound 2497352] | 92.5 | 96.2 % of Negative Control
CC(C)(C)NCC(O)COc1ccc(C23CC4CC(CC(C4)C2)C3)cc1 (centres unmarked) [compound 2769740] | 101.5 | 2.7 % of Negative Control
NNc1nc2cc3c(cc2s1)OCCO3 [compound 2771030] | 99.1 | 94.3 % of Negative Control
O=Cc1sc(=O)n(-c2ccccc2)c1Cl [compound 2793380] | 78.0 | 5.7 % of Negative Control
O=S1(=O)CCC(NC(=S)SCc2ccccc2)C1 (centres unmarked) [compound 2831154] | 48.2 | 24.3 % of Negative Control
Cc1ccc(N2C(=O)C=CC2=O)c([N+](=O)[O-])c1 [compound 2834581] | 101.2 | 4.3 % of Negative Control
